In patent US20220249454A1, “INHIBITORS OF MONOCARBOXYLATE TRANSPORTERS FOR CANCER IMMUNOTHERAPY” (NIROGY THERAPEUTICS, INC., priority 2021, published 2022):

Test system: panel of solid and haemotological tumor cell lines (e.g., Hs578t, SiHa, MDA-MB-231)
Assay: MTS cell proliferation assay (cytotoxicity)
Format: cell-based
Details: Table 1 (Group 1), 72-96 hours, 10 mM lactate medium or RPMI 1640 medium, cell line not stated
Method: The anti-proliferation effect of MCT inhibition was investigated across a panel of solid and haemotological tumor cell lines. Cells were routinely cultured in their appropriate growth medium. On day 1, between 10,000-25,000 cells/well (e.g., Hs578t: 15,000 cells/well, SiHa: 10,000 cells/well, and MDA-MB-231: 25,000 cells/well) were plated into 96-well plates. 100 μL. of phosphate buffered saline solution was added to the external wells to prevent media evaporation. Plates were incubated in growth medium overnight at 37° C. in the presence of 5% CO2. On day 2, dry weight compound stocks were dissolved to a concentration of 10 mM in 100% DMSO. Compounds were further diluted in the assay medium; 10 mM lactate medium (without glucose, pyruvate, and glutamine) or RPMI 1640 medium (without pyruvate and glutamine) to generate a final dose range of 1 nM to 10 μM. Growth medium in the 96-well plate was replaced with the assay medium (10 mM lactate medium or RPMI medium or appropriate medium), and compounds were added to each well in the plate at different concentrations via serial dilution or pre-prepared solutions in assay medium. Plates were then incubated at 37° C. in the presence of 5% CO2 for a further 72-96 hours. On day 2-5, assay media was changed to 100 uL of DMEM/F12 and 20 μL of CellTiter 96 AQ MTS reagent was added to each well and the plate was returned to the incubator for 1-2 hours. MTS is bioreduced by NADPH or NADH produced by dehydrogenase enzymes in metabolically active cells into a coloured formazan product that is soluble in tissue culture medium. The amount of coloured formazan product is directly proportional to the number of living cells in culture. The absorbance of the plates was read on a Spectramax M5e plate reader using […] measurement wavelength. Dose response curves were plotted and IC50 values were calculated using GraphPad Prism. The IC50 value is equivalent to the concentration of compound that causes 50% inhibition of growth calculated from the compound treated signal to the vehicle treated signal.
Cytotoxicity of selected compounds is listed in Table 1, where IC50: A=<1 uM; B=1-10 uM; C=>10 uM; and NT=Not Tested.

Structure (SMILES) | IC50
CN(c1cc2oc(=O)c(C(=O)O)cc2s1)S(=O)(=O)c1cccc(C(F)(F)F)c1 [Compound 1.028, 2-[Methyl-(3-trifluoromethyl-benzenesulfonyl)-amino]-5-oxo-5H-thieno[3,2-b]pyran-6-carboxylic acid] | < 1 µM
CN(CC1CCCCC1)c1cc2oc(=O)c(C(=O)O)cc2s1 [Compound 1.005, 2-((cyclohexylmethyl)(methyl)amino)-5-oxo-5H-thieno[3,2-b]pyran-6-carboxylic acid] | < 1 µM
CN(Cc1cccc(F)c1)c1cc2oc(=O)c(C(=O)O)cc2s1 [Compound 1.003, 2-((3-fluorobenzyl)(methyl)amino)-5-oxo-5H-thieno[3,2-b]pyran-6-carboxylic acid] | < 1 µM
CN1CCC(CN(C)c2cc3oc(=O)c(C(=O)O)cc3s2)CC1 [Compound 1.012, 2-(methyl((1-methylpiperidin-4-yl)methyl)amino)-5-oxo-5H-thieno[3,2-b]pyran-6-carboxylic acid] | < 1 µM
COc1cc(C(=O)N(C)c2cc3oc(=O)c(C(=O)O)cc3s2)ccc1F [Compound 1.019, 2-[(4-Fluoro-3-methoxy-benzoyl)-methyl-amino]-5-oxo-5H-thieno[3,2-b]pyran-6-carboxylic acid] | < 1 µM

Same assay, conditions: Table 2 (Group 2), 72-96 hours, 10 mM lactate medium or RPMI 1640 medium, cell line not stated

Structure (SMILES) | IC50
CCOc1cc(NC(=O)N(C)c2cc3oc(=O)c(C(=O)O)cc3s2)ccc1F [Compound 2.017, 2-(3-(3-ethoxy-4-fluorophenyl)-1-methylureido)-5-oxo-5H-thieno[3,2-b]pyran-6-carboxylic acid] | < 1 µM
CN(C(=O)Nc1ccc(C(F)(F)F)cc1)c1cc2oc(=O)c(C(=O)O)cc2s1 [Compound 2.012, 2-(1-methyl-3-(4-(trifluoromethyl)phenyl)ureido)-5-oxo-5H-thieno[3,2-b]pyran-6-carboxylic acid] | < 1 µM
Cc1ccccc1NC(=O)N(C)c1cc2oc(=O)c(C(=O)O)cc2s1 [Compound 2.035, 2-(1-methyl-3-(o-tolyl)ureido)-5-oxo-5H-thieno[3,2-b]pyran-6-carboxylic acid] | < 1 µM
CC(C)c1csc(NC(=O)N(C)c2cc3oc(=O)c(C(=O)O)cc3s2)n1 [Compound 2.049, 2-(3-(4-isopropylthiazol-2-yl)-1-methylureido)-5-oxo-5H-thieno[3,2-b]pyran-6-carboxylic acid] | < 1 µM
CN(C(=O)Nc1ccc(F)c(F)c1)c1cc2oc(=O)c(C(=O)O)cc2s1 [Compound 2.040, 2-(3-(3,4-difluorophenyl)-1-methylureido)-5-oxo-5H-thieno[3,2-b]pyran-6-carboxylic acid] | < 1 µM
CN(C(=O)N[C@H]1CC[C@H](C)CC1)c1cc2oc(=O)c(C(=O)O)cc2s1 [Compound 2.020, 2-(1-methyl-3-((1r,4r)-4-methylcyclohexyl)ureido)-5-oxo-5H-thieno[3,2-b]pyran-6-carboxylic acid] | < 1 µM
CCOc1ccc(NC(=O)N(C)c2cc3oc(=O)c(C(=O)O)cc3s2)cc1 [Compound 2.021, 2-(3-(4-ethoxyphenyl)-1-methylureido)-5-oxo-5H-thieno[3,2-b]pyran-6-carboxylic acid] | < 1 µM
COc1cc(NC(=O)N(C)c2cc3oc(=O)c(C(=O)O)cc3s2)cc(OC)c1 [Compound 2.022, 2-(3-(3,5-dimethoxyphenyl)-1-methylureido)-5-oxo-5H-thieno[3,2-b]pyran-6-carboxylic acid] | < 1 µM
CN(C(=O)Nc1cccc(C(F)(F)F)c1)c1cc2oc(=O)c(C(=O)O)cc2s1 [Compound 2.011, 2-(1-methyl-3-(3-(trifluoromethyl)phenyl)ureido)-5-oxo-5H-thieno[3,2-b]pyran-6-carboxylic acid] | < 1 µM
CN(C(=O)Nc1cc(C(F)(F)F)cc(C(F)(F)F)c1)c1cc2oc(=O)c(C(=O)O)cc2s1 [Compound 2.042, 2-(3-(3,5-bis(trifluoromethyl)phenyl)-1-methylureido)-5-oxo-5H-thieno[3,2-b]pyran-6-carboxylic acid] | < 1 µM
CN(C(=O)N1CCOCC1)c1cc2oc(=O)c(C(=O)O)cc2s1 [Compound 2.044, 2-(N-methylmorpholine-4-carboxamido)-5-oxo-5H-thieno[3,2-b]pyran-6-carboxylic acid] | < 1 µM
CN(C(=O)N1CCCC1)c1cc2oc(=O)c(C(=O)O)cc2s1 [Compound 2.046, 2-(N-methylpyrrolidine-1-carboxamido)-5-oxo-5H-thieno[3,2-b]pyran-6-carboxylic acid] | < 1 µM
CN(C(=O)Nc1ccc(F)cc1)c1cc2oc(=O)c(C(=O)O)cc2s1 [Compound 2.005, 2-(3-(4-fluorophenyl)-1-methylureido)-5-oxo-5H-thieno[3,2-b]pyran-6-carboxylic acid] | < 1 µM
CN(C(=O)Nc1ccc(Oc2ccccc2Cl)cc1)c1cc2oc(=O)c(C(=O)O)cc2s1 [Compound 2.041, 2-(3-(4-(2-chlorophenoxy)phenyl)-1-methylureido)-5-oxo-5H-thieno[3,2-b]pyran-6-carboxylic acid] | < 1 µM
CN(C(=O)Nc1ccc(OC(F)(F)F)cc1)c1cc2oc(=O)c(C(=O)O)cc2s1 [Compound 2.019, 2-(1-methyl-3-(4-(trifluoromethoxy)phenyl)ureido)-5-oxo-5H-thieno[3,2-b]pyran-6-carboxylic acid] | < 1 µM
CN(C(=O)Nc1ccc(Cl)cc1)c1cc2oc(=O)c(C(=O)O)cc2s1 [Compound 2.004, 2-(3-(4-chlorophenyl)-1-methylureido)-5-oxo-5H-thieno[3,2-b]pyran-6-carboxylic acid] | < 1 µM
CN(Cc1cccc(-c2ccc(F)cc2)c1)c1cc2oc(=O)c(C(=O)O)cc2s1 [Compound 2.050, 2-(((4′-fluoro-[1,1′-biphenyl]-3-yl)methyl)(methyl)amino)-5-oxo-5H-thieno[3,2-b]pyran-6-carboxylic acid] | < 1 µM
CN(C(=O)c1ccc(-c2ccccc2)cc1)c1cc2oc(=O)c(C(=O)O)cc2s1 [Compound 2.028, 2-(N-methyl-[1,1′-biphenyl]-4-carboxamido)-5-oxo-5H-thieno[3,2-b]pyran-6-carboxylic acid] | < 1 µM
CN(C(=O)Nc1ccc(F)cc1F)c1cc2oc(=O)c(C(=O)O)cc2s1 [Compound 2.037, 2-(3-(2,4-difluorophenyl)-1-methylureido)-5-oxo-5H-thieno[3,2-b]pyran-6-carboxylic acid] | < 1 µM
